# Structures can show the parent of a compound that is named as a salt.
# Columns and labels:
# [1] = system: bacterial strains that express the class D cephalosporinase OXA-15; assay: Synergy MIC / standard BLI potentiation MIC assay, strains expressing OXA-15;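 note: more active means a lower MIC or sMIC than Avibactam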; type: cell-based, E. coli; details: in the presence of a β-lactam; comparator Avibactam (CCC)
# Experimental: (§1) Unless otherwise indicated, the activity of the BLI compounds can be described by the MIC value obtained from a Synergy MIC assay or a BLI potentiation assay (e.g as described herein), both of which are run in the presence of a β-lactam.
# (§2) The experimental protocol was performed according to Clinical and Laboratory Standards Institute (CLSI) guidelines with modifications as described below (CLSI guidelines can be derived from the CLSI document M07-A9 published in January 2012: “Methods for Dilution Antimicrobial Susceptibility Tests for Bacteria That Grow Aerobically; Approved Standard-Ninth Edition”).
# (§3) To prepare for MIC testing, frozen glycerol stocks of clinical isolates (Klebsiella pneumoniae, Eschericia coli, Enterobacter spp, Citrobacter spp, or Pseudomonas aeruginosa) were used to streak for isolated colonies on rich, non-selective, tryptic soy agar containing 5% sheep's blood (TSAB). Frozen glycerol stocks of laboratory engineered, isogenic E. coli strains, which contain cloned β-lactamase expressing plasmids were used to streak for isolated colonies on rich, selective LB agar supplemented with 25 μg/mL tetracycline to maintain the plasmid. All strains were incubated at 37° C. for 18-24 hrs.
# (§4) On the day of testing, primary cultures were started by scraping off 5-10 colonies from the TSAB plates containing clinical strains or the tetracycline supplemented LB plates containing engineered strains. The clinical strain material was suspended in ˜5 mL of cation adjusted Mueller Hinton Broth (CAMHB) in 14 mL culture tubes. The engineered strain material was suspended in CAMHB (supplemented with 25 μg/mL tetracycline) in 14 mL culture tubes. All strains were incubated at 37° C. with aeration (200 rpm) for ˜2 hrs until the optical density at 600 nm (OD600) was ≧0.1.
# (§5) The two compound components of the assay were each diluted in CAMHB and added to the 96-well broth microdilution assay plates. 50 μL of the β-lactam was added to each well of the assay plate in 2-fold dilutions with final concentrations ranging from 128 to 0.13 μg/mL. 25 μL of the BLI compound was added to all wells in the broth microdilution plates at a final concentration of 4 μg/mL. Inoculum cultures were prepared by standardizing the primary cultures to OD600=0.1 and then adding 20 μL of the adjusted primary culture per 1 mL CAMHB for clinical strains or CAMHB (supplemented with tetracycline at 100 μg/mL) for engineered strains, so that the final inoculum density was ˜10^5 colony forming units per milliliter. Diluted inoculum cultures were used to inoculate 25 μl, per well in 96-well broth microdilution assay plates. The final volume of each well was 100 μL and contained a β-lactam at different concentrations, a BLIcompound at 4 μg/mL concentration, the bacterial culture at an OD600 of approximately 0.001 and when necessary tetracycline at 25 μg/mL.
# (§6) Plates were incubated for 18-20 hours at 37° C. with aeration (200 rpm). Following incubation, growth was confirmed visually placing plates over a viewing apparatus (stand with a mirror underneath) and then OD600 was measured using a SpectraMax 340PC384 plate reader (Molecular Devices, Sunnyvale, Calif.). Growth was defined as turbidity that could be detected with the naked eye or achieving minimum OD600 of 0.1. MIC values were defined as the lowest concentration producing no visible turbidity.
# (§7) The synergy MIC (sMIC) assay determines the concentration of the BLI required to potentiate the activity of a fixed concentration of a β-lactam antibiotic against β-lactamase producing bacterial strains. The experimental protocol was performed according to Clinical and Laboratory Standards Institute (CLSI) guidelines with modifications as described below (CLSI guidelines can be derived from the CLSI document M07-A9 published in January 2012: “Methods for Dilution Antimicrobial Susceptibility Tests for Bacteria That Grow Aerobically; Approved Standard-Ninth Edition”). […]
# [2] = system: bacterial strains that express KPC β-lactamases; assay: Synergy MIC / standard BLI potentiation MIC assay, strains expressing KPC β-lactamases; type: cell-based; details: for at least one KPC strain and/or a better spectrum of activity against KPC strains than Avibactam; in the presence of a β-lactam
# Experimental: as §1, §2, §3, §4, §5, §6, §7
Compound,activity against bacterial strains that express OXA-15 β-lactamase compared with Avibactam [1],activity against bacterial strains that express KPC β-lactamase compared with Avibactam [2]
"O=C1N2C[C@@H](CC[C@H]2c2nnco2)N1OS(=O)(=O)O [Compound 701, (2S,5R)-2-(1,3,4-oxadiazol-2-yl)-7-oxo-1,6-diazabicyclo[3.2.1]octan-6-yl hydrogen sulfate]",more active than Avibactam,more active than Avibactam
"NCc1nnc([C@@H]2CC[C@@H]3CN2C(=O)N3OS(=O)(=O)O)o1 [Compound 702, (2S,5R)-2-(5-(aminomethyl)-1,3,4-oxadiazol-2-yl)-7-oxo-1,6-diazabicyclo[3.2.1]octan-6-yl hydrogen sulfate]",more active than Avibactam,more active than Avibactam
"NCCc1nnc([C@@H]2CC[C@@H]3CN2C(=O)N3OS(=O)(=O)O)o1 [Compound 703, (2S,5R)-2-(5-(2-aminoethyl)-1,3,4-oxadiazol-2-yl)-7-oxo-1,6-diazabicyclo[3.2.1]octan-6-yl hydrogen sulfate]",more active than Avibactam,more active than Avibactam
"N=C(N)NCCc1nnc([C@@H]2CC[C@@H]3CN2C(=O)N3OS(=O)(=O)O)o1 [Compound 705, (2S,5R)-2-(5-(2-guanidinoethyl)-1,3,4-oxadiazol-2-yl)-7-oxo-1,6-diazabicyclo[3.2.1]octan-6-yl hydrogen sulfate]",more active than Avibactam,more active than Avibactam
"NC(=O)c1nnc([C@@H]2CC[C@@H]3CN2C(=O)N3OS(=O)(=O)O)o1 [Compound 706, (2S,5R)-2-(5-carbamoyl-1,3,4-oxadiazol-2-yl)-7-oxo-1,6-diaza-bicyclo[3.2.1]octan-6-yl hydrogen sulfate]",more active than Avibactam,more active than Avibactam
"O=C1N2C[C@@H](CC[C@H]2c2nnc(C3CNC3)o2)N1OS(=O)(=O)O [Compound 708, (2S,5R)-2-(5-(azetidin-3-yl)-1,3,4-oxadiazol-2-yl)-7-oxo-1,6-diazabicyclo[3.2.1]octan-6-yl hydrogen sulfate]",more active than Avibactam,more active than Avibactam
"N=C(N)N1CC(c2nnc([C@@H]3CC[C@@H]4CN3C(=O)N4OS(=O)(=O)O)o2)C1 [Compound 709, (2S,5R)-2-(5-(1-carbamimidoylazetidin-3-yl)-1,3,4-oxadiazol-2-yl)-7-oxo-1,6-diazabicyclo[3.2.1]octan-6-yl hydrogen sulfate]",more active than Avibactam,more active than Avibactam
"O=C1N2C[C@@H](CC[C@H]2c2nnc(C3CCNC3)o2)N1OS(=O)(=O)O (stereo partly drawn) [Compound 710, (2S,5R)-7-oxo-2-(5-(pyrrolidin-3-yl)-1,3,4-oxadiazol-2-yl)-1,6-diazabicyclo[3.2.1]octan-6-yl hydrogen sulfate]",more active than Avibactam,more active than Avibactam
"O=C1N2C[C@@H](CC[C@H]2c2nnc(C3CCNCC3)o2)N1OS(=O)(=O)O [Compound 711, (2S,5R)-7-oxo-2-(5-(piperidin-4-yl)-1,3,4-oxadiazol-2-yl)-1,6-diazabicyclo[3.2.1]octan-6-yl hydrogen sulfate]",more active than Avibactam,more active than Avibactam
"NCCCc1nnc([C@@H]2CC[C@@H]3CN2C(=O)N3OS(=O)(=O)O)o1 [Compound 720, (2S,5R)-2-(5-(3-aminopropyl)-1,3,4-oxadiazol-2-yl)-7-oxo-1,6-diazabicyclo[3.2.1]octan-6-yl hydrogen sulfate]",more active than Avibactam,more active than Avibactam
"N=C(N)NCc1nnc([C@@H]2CC[C@@H]3CN2C(=O)N3OS(=O)(=O)O)s1 [Compound 721, (2S,5R)-2-(5-(guanidinomethyl)-1,3,4-thiadiazol-2-yl)-7-oxo-1,6-diazabicyclo[3.2.1]octan-6-yl hydrogen sulfate]",more active than Avibactam,more active than Avibactam
"CNCCc1nnc([C@@H]2CC[C@@H]3CN2C(=O)N3OS(=O)(=O)O)o1 [Compound 722, (2S,5R)-2-(5-(2-(methylamino)ethyl)-1,3,4-oxadiazol-2-yl)-7-oxo-1,6-diazabicyclo[3.2.1]octan-6-yl hydrogen sulfate]",more active than Avibactam,more active than Avibactam
"N=C(N)NCC1(c2nnc([C@@H]3CC[C@@H]4CN3C(=O)N4OS(=O)(=O)O)o2)CC1 [Compound 723, (2S,5R)-2-(5-(1-(guanidinomethyl)cyclopropyl)-1,3,4-oxadiazol-2-yl)-7-oxo-1,6-diazabicyclo[3.2.1]octan-6-yl hydrogen sulfate]",more active than Avibactam,more active than Avibactam
"NC1(Cc2nnc([C@@H]3CC[C@@H]4CN3C(=O)N4OS(=O)(=O)O)o2)CC1 [Compound 724, (2S,5R)-2-(5-((1-aminocyclopropyl)methyl)-1,3,4-oxadiazol-2-yl)-7-oxo-1,6-diazabicyclo[3.2.1]octan-6-yl hydrogen sulfate]",more active than Avibactam,more active than Avibactam
"O=C1N2C[C@@H](CC[C@H]2c2nnc(CNC3CNC3)o2)N1OS(=O)(=O)O [Compound 726, (2S,5R)-2-(5-((azetidin-3-ylamino)methyl)-1,3,4-oxadiazol-2-yl)-7-oxo-1,6-diazabicyclo[3.2.1]octan-6-yl hydrogen sulfate]",more active than Avibactam,more active than Avibactam
"N[C@H]1C[C@H](c2nnc([C@@H]3CC[C@@H]4CN3C(=O)N4OS(=O)(=O)O)o2)C1 [Compound 727, (2S,5R)-2-(5-((1r,3S)-3-aminocyclobutyl)-1,3,4-oxadiazol-2-yl)-7-oxo-1,6-diazabicyclo[3.2.1]octan-6-yl hydrogen sulfate]",more active than Avibactam,more active than Avibactam
"NC1CCN(CCc2nnc([C@@H]3CC[C@@H]4CN3C(=O)N4OS(=O)(=O)O)o2)CC1 [Compound 775, (2S,5R)-2-(5-(2-(4-aminopiperidin-1-yl)ethyl)-1,3,4-oxadiazol-2-yl)-7-oxo-1,6-diazabicyclo[3.2.1]octan-6-yl hydrogen sulfate]",,more active than Avibactam
